This is an account of results in patent US12161647B2, “Treating hearing loss” (Massachusetts Eye and Ear Infirmary, priority 2012, dated 2024).

Series [1] is described as follows: Toxicity of systemic LY411575. It counts as in vivo. The following applies: 50 mg/kg for 5 d. How it is done: For systemic administration, LY411575 (50 mg/kg) dissolved in 0.5% (wt/vol) methylcellulose (WAKO) was injected orally once daily for 5 consecutive d. Hearing was measured by ABR at 1 d before, 2 d, 1, 2 week, 1, 2 and 3 months after noise exposure.
Preliminary range finding experiments for drug treatment were carried out by systemic injection and were limited by toxicity. A minimal dosing regimen for an effect on the thymus weight was chosen (43, 44).

Series [2] concerns noise-damaged cochlea. The series can be described thus: ABR after systemic LY411575 in noise-damaged mice. It counts as in vivo, mouse. On the procedure: 4-week-old mice were exposed free-field, awake and unrestrained, in a small reverberant chamber (22). Acoustic trauma was produced by a 2 h exposure to an 8-16 kHz octave band noise presented at 116 dB SPL. The exposure stimulus was generated by a custom white-noise source, filtered (Brickwall Filter with a 60 dB/octave slope), amplified (Crown power amplifier), and delivered (JBL compression driver) through an exponential horn fitted securely to a hole in the top of a reverberant box.
[…] Hearing was measured by ABR at 1 d before, 2 d, 1, 2 week, 1, 2 and 3 months after noise exposure.
Mice were anesthetized with ketamine (100 mg/kg i.p.) and xylazine (20 mg/kg i.p.). Needle electrodes were inserted at vertex and pinna, with a ground near the tail. ABRs were evoked with 5-ms tone pips (0.5-ms rise-fall with a cos^2 onset envelope delivered at 35/s). The response was amplified, filtered and averaged in a LabVIEW-driven data-acquisition system. Sound level was raised in 5 dB steps from ≥10 dB below threshold <80 dB SPL. At each sound level, 1024 responses were averaged (with stimulus polarity alternated), using an “artifact reject,” whereby response waveforms were discarded when peak-to-peak response amplitude exceeded 15 μV. […] For amplitude versus level functions, the wave I peak was identified by visual inspection at each sound level and the peak-to-peak amplitude computed.

Series [3] relates to neonatal organ of Corti explants. Kind of series: Neonatal organ of Corti explant culture, hair cell number. Type of series: cell-based, mouse. On the procedure: Cochleae of 3-d-postnatal C57BL/6 or Mos-iCsp3; Pou4f3-Cre double transgenic mice of both sexes were dissected in Hanks solution (Invitrogen). To obtain a flat cochlear surface preparation, the spiral ganglion, Reissner's membrane, and the most basal cochlear segment were removed. Explants were plated onto 4 well plates (Greiner Bio-One) coated with poly-L-ornithine (0.01%, Sigma) and laminin (50 μg/ml, Becton Dickinson). Cochlear explants were cultured in DMEM (Invitrogen) with 10% fetal bovine serum. All cultures were maintained in a 5% CO2/20% O2-humidified incubator (Forma Scientific).
For explants, the organs of Corti were fixed for 15 min with 4% paraformaldehyde in PBS. […] Primary antibodies were detected with secondary antibodies conjugated with Alexa 488 and 647 (Molecular Probes). The samples were stained with rhodamine phalloidin (Invitrogen) for 15 min and viewed by confocal fluorescence microscopy (TCS SP5, Leica).
Cell counting for spheres was performed with MetaMorph software. The cell number was determined from DAPI- or Hoechst-positive nuclei. […] For explants, inner hair cells, outer hair cells, and supporting cells in the outer hair cell region were counted on cochlear whole mounts. […] High-power images of the full-length cochlea or cochlear explant cultures were assembled and analyzed in PhotoShop CS4 (Adobe). […] Density (cells per 100 μm) was then calculated for each segment. […]

On to `C[C@H](NC(=O)[C@@H](O)c1cc(F)cc(F)c1)C(=O)N[C@@H]1C(=O)N(C)c2ccccc2-c2ccccc21` [LY411575, N-2((2S)-2-(3,5-difluorophenyl)-2-hydroxyethanoyl)-N1-((7S)-5-methyl-6-oxo-6,7-dihydro-5H-dibenzo[b,d]azepin-7-yl)-l-alaninamide], for which, in series [1], the “side-effects in treated mice” value is “significant side-effects” and the “thymus total number of cells decreased to” value is reported as 1/40. In series [1] (deaths due to severe diarrhea and weight loss), the “mice (of 12) that could be tested for ABR at 3 months; the rest died within the first week” value came to 6 mice. Besides, the “thymus double positive fraction of CD4 and CD8 after treatment” value in series [1] (decreased from 78.6%) was 1.23%. The “weight loss in surviving mice” value in series [1] (in 3 d) is on record as “approximately 15%”. Also, the spleen finding result in series [1] (in a week) is given as “severe atrophy”. Also, the “therapeutic benefit at lower dose” value in series [2] (10 mg/kg body weight) is recorded as “no therapeutic benefit”. Besides, the “noise-induced ABR threshold shift” value in series [2] (oral 50 mg/kg for 5 d, 4, 8 and 16 kHz) is “decreased”. Moreover, the “increase in number of myosin VIIa-positive cells in the outer hair cell region compared to the control” value in series [3] (LY411575 1 μM, 72 h, p<0.05) stood at 30 cells/100 μm. In addition, the “number of hair cells in wild-type organ of Corti (Wt)” value in series [3] (apex, mid-apex and mid-base, cultured 3 d) was “Increased”.
